Among the data in patent US20240409553A1, “HETEROCYCLIC NLRP3 INHIBITORS” (Hoffmann-La Roche Inc., priority 2021, published 2024) are IC50 values, retold here.

Structures can show the parent of a compound that is named as a salt.

The target of test [1] is T1, NLRP3 (Homo sapiens, UniProt Q96P20). Put plainly: THP-1 cells pyroptosis assay (LPS priming, nigericin, resazurin readout). Further details: Seed THP-1 cells (25,000 cells/well) containing 1.0 μg/ml LPS; host or cells: THP-1 cells, LPS-primed, nigericin-stimulated. As to conditions: 1 μg/ml LPS, 3 h compound, 5 μM nigericin 1 hr. In kind it is cell-based. The method, then:
THP-1 cells (ATCC #TIB-202) were grown in RPMI containing L-glutamine (Gibco #11835) supplemented with 1 mM sodium pyruvate (Sigma #S8636) and penicillin (100 units/ml)/streptomycin (0.1 mg/ml) (Sigma #P4333) in 10% Fetal Bovine Serum (FBS) (Sigma #F0804). The cells were routinely passaged and grown to confluency (˜10^6 cells/ml). On the day of the experiment, THP-1 cells were harvested and resuspended into RPMI medium (without FBS). The cells were then counted and viability (>90%) checked by Trypan blue (Sigma #T8154). Appropriate dilutions were made to give a concentration of 625,000 cells/ml. To this diluted cell solution was added LPS (Sigma #L4524) to give a 1 μg/ml Final Assay Concentration (FAC). 40 μl of the final preparation was aliquoted into each well of a 96-well plate. The plate thus prepared was used for compound screening.
The following method step-by-step assay was followed for compound screening. • 1. Seed THP-1 cells (25,000 cells/well) containing 1.0 μg/ml LPS in 40 μl of RPMI medium (without FBS) in 96-well, black walled, clear bottom cell culture plates coated with poly-D-lysine (VWR #734-0317) • 2. Add 5 μl compound (8 points half-log dilution, with 10 μM top dose) or vehicle (DMSO 0.1% FAC) to the appropriate wells • 3. Incubate for 3 hours at 37° C., 5% CO2 • 4. Add 5 μl nigericin (Sigma #N7143) (FAC 5 μM) to all wells • 5. Incubate for 1 hr at 37° C., 5% CO2 • 6. At the end of the incubation period, spin plates at 300×g for 3 mins and remove supernatant • 7. Then add 50 μl of resazurin (Sigma #R7017) (FAC 100 μM resazurin in RPMI medium without FBS) and incubate plates for a further 1-2 hours at 37° C. and 5% CO2 • 8. Plates were read in an Envision reader at Ex 560 nm and Em 590 nm • 9. IC50 data is fitted to a non-linear regression equation (log inhibitor vs response-variable slope 4-parameters)
In general terms: The colour change of resazurin is a common sign of viable cells or microbes.

The target in test [2] is T1, NLRP3. Put plainly: Human whole blood IL-1β release assay (LPS, nigericin, AlphaLisa). In kind it is cell-based. Further details: Plate out 80 μl of whole blood containing 1 μg/ml of LPS; from tissue; host or cells: human whole blood from healthy donors, LPS-primed, nigericin-stimulated. As to conditions: 1 μg/ml LPS, 3 h compound, 10 μM nigericin 1 hr, IL-1β in supernatant, read-out: Human whole blood IB-1β Assay IC50. Here is the method: For systemic delivery, the ability to inhibit NLRP3 when the compounds are present within the bloodstream is of great importance. For this reason, the NLRP3 inhibitory activity of a number of compounds in human whole blood was investigated in accordance with the following protocol.
Human whole blood in Li-heparin tubes was obtained from healthy donors from a volunteer donor panel. • 1. Plate out 80 μl of whole blood containing 1 μg/ml of LPS in 96-well, clear bottom cell culture plate (Corning #3585) • 2. Add 10 μl compound (8 points half-log dilution with 10 μM top dose) or vehicle (DMSO 0.10% FAC) to the appropriate wells • 3. Incubate for 3 hours at 37° C., 5% CO2 • 4. Add 10 μl nigericin (Sigma #N7143) (10 μM FAC) to all wells • 5. Incubate for 1 hr at 37° C., 5% CO2 • 6. At the end of the incubation period, spin plates at 300×g for 5 mins to pellet cells and remove 20 μl of supernatant and add to 96-well v-bottom plates for IL-1β analysis (note: these plates containing the supernatants can be stored at −80° C. to be analysed at a later date) • 7. IL-1β was measured according to the manufacturer protocol (Perkin Elmer-AlphaLisa IL-1 Kit AL220F-5000) • 8. IC50 data is fitted to a non-linear regression equation (log inhibitor vs response-variable slope 4-parameters)
Background: Alpha assays give light when donor and acceptor beads are brought close together.

T1 sequence (Q96P20 whole entry): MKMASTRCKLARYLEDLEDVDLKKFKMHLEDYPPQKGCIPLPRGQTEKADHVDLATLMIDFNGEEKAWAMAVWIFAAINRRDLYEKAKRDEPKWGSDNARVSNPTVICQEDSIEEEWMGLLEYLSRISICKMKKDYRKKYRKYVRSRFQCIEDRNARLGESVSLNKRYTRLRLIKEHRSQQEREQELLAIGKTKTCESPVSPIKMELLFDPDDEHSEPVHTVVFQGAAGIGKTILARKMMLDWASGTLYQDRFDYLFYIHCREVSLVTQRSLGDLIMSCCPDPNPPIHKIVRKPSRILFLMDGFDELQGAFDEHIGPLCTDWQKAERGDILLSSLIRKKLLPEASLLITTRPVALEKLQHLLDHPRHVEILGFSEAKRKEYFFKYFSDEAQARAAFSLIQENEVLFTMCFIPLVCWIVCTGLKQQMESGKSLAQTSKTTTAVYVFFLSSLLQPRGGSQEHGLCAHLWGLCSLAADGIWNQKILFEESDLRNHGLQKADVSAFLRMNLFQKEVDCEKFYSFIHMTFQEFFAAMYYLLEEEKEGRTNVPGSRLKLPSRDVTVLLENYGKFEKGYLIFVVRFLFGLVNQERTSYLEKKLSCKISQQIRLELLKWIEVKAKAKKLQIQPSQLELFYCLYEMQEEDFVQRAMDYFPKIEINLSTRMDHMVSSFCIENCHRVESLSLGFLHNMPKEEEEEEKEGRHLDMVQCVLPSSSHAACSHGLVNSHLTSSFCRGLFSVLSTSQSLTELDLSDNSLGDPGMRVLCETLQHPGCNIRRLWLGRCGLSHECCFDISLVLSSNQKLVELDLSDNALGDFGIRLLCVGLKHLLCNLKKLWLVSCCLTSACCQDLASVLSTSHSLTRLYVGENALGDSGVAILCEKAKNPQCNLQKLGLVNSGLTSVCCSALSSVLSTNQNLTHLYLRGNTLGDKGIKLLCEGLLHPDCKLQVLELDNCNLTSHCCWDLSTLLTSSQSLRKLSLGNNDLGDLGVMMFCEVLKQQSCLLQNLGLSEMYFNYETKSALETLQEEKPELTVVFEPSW

As to `CCN1CCCC(Nc2nnc(-c3ccc(C(F)(F)F)cc3O)c3ccsc23)C1` (racemic) [Example 1, (rac)-2-[7-[(1-Ethyl-3-piperidyl)amino]thieno[2,3-d]pyridazin-4-yl]-5(trifluoromethyl)phenol; formic acid], the values for the IC50 on NLRP3 [1] and on NLRP3 [2] were 1.6 nM and 0.088 nM, respectively. The matching figures for `CCN1CCCC(Nc2nnc(-c3ccc(C(F)(F)F)cc3O)c3sccc23)C1` (racemic) [Example 2, (rac)-2-[4-[(1-Ethyl-3-piperidyl)amino]thieno[2,3-d]pyridazin-7-yl]-5 (trifluoromethyl)phenol; formic acid]: 3.5 nM and 0.349 nM. In the same order, the values of `CCN1CCCC(Nc2nnc(-c3ccc(C(F)(F)F)cc3)c3ccsc23)C1` (racemic) [Example 3, (rac)-N-(1-ethyl-3-piperidyl)-4-[4-(trifluoromethyl)phenyl]thieno[2,3-d]pyridazin-7-amine] are 57.2 nM and 0.091 nM. For `CCN1CCCC(Nc2nnc(-c3ccc(C(F)(F)F)cc3)c3sccc23)C1` (racemic) [Example 4, (rac)-N-(1-ethyl-3-piperidyl)-7-[4-(trifluoromethyl)phenyl]thieno[2,3-d]pyridazin-4-amine], the IC50 on NLRP3 [1] was determined as 52.4 nM; on NLRP3 [2], 0.328 nM. `CCN1CCC[C@@H](Nc2nnc(-c3ccc(C(F)(F)F)cc3O)c3c2ccn3C)C1` [Example 5-HCl, 2-[4-[[(3R)-1-Ethyl-3-piperidyl]amino]-1-methyl-pyrrolo[2,3-d]pyridazin-7-yl]-5-(trifluoromethyl)phenol; hydrochloride] showed an IC50 at NLRP3 [1] of 11.6 nM.

As for `CCN1CCC[C@@H](Nc2nnc(-c3ccc(C(F)(F)F)cc3O)c3c2ccn3C)C1` [Example 5-TFA, 2-[4-[[(3R)-1-ethyl-3-piperidyl]amino]-1-methyl-pyrrolo[2,3-d]pyridazin-7-yl]-5-(trifluoromethyl)phenol; 2,2,2-trifluoroacetic acid], the IC50 is 12.4 nM against NLRP3 [1] and 0.028 nM on NLRP3 [2]. In the same order, the values of `CCN1CCC[C@@H](Nc2nnc(-c3ccc(C(F)(F)F)cc3O)c3c2cnn3C)C1` [Example 6, 2-[4-[[(3R)-1-Ethyl-3-piperidyl]amino]-1-methyl-pyrazolo[3,4-d]pyridazin-7-yl]-5-(trifluoromethyl)phenol; 2,2,2-trifluoroacetic acid] are 3.5 nM and 0.028 nM. For the compound `CCN1CCC[C@@H](Nc2nnc(-c3ccc(C(F)(F)F)cc3O)c3occc23)C1` [Example 7, 2-[4-[[(3R)-1-ethyl-3-piperidyl]amino]furo[2,3-d]pyridazin-7-yl]-5-(trifluoromethyl)phenol], the IC50 against NLRP3 [1] was 9.1 nM; at NLRP3 [2] it was 0.592 nM. The matching figures for `CCN1CCC[C@@H](Nc2nnc(-c3ccc(C(F)(F)F)cc3O)c3cnn(C)c23)C1` [Example 9, 2-[7-[[(3R)-1-Ethyl-3-piperidyl]amino]-1-methyl-pyrazolo[3,4-d]pyridazin-4-yl]-5-(trifluoromethyl)phenol]: 2.7 nM and 0.217 nM.

With `CCN1CCC[C@@H](Nc2nnc(-c3ccc(OC(F)(F)F)cc3O)c3c2cnn3C)C1` [Example 10, 2-[4-[[(3R)-1-Ethyl-3-piperidyl]amino]-1-methyl-pyrazolo[3,4-d]pyridazin-7-yl]-5-(trifluoromethoxy)phenol; 2,2,2-trifluoroacetic acid], the IC50 on NLRP3 [1] was found to be 2.3 nM; on NLRP3 [2], 0.024 nM. Compound `Cn1ncc2c(N[C@@H]3CCCC[C@H]3O)nnc(-c3ccc(C(F)(F)F)cc3O)c21` [Example 11, 2-[4-[[(1R,2R)-2-Hydroxycyclohexyl]amino]-1-methyl-pyrazolo[3,4-d]pyridazin-7-yl]-5-(trifluoromethyl)phenol; 2,2,2-trifluoroacetic acid] showed an IC50 at NLRP3 [1] of 76 nM. On to `CCN1CCC[C@@H](Nc2nnc(-c3ccc(Cl)cc3O)c3c2cnn3C)C1` [Example 12, 5-Chloro-2-[1-methyl-4-[[(3R)-1-ethyl-3-piperidyl]amino]pyrazolo[3,4-d]pyridazin-7-yl]phenol; 2,2,2-trifluoroacetic acid], for which the values for the IC50 against NLRP3 [1] and at NLRP3 [2] were 2.2 nM and 0.014 nM, respectively. The matching figures for `CCN1CCC[C@@H](Nc2nnc(-c3ccc(C(F)(F)F)cc3O)c3onc(C)c23)C1` [Example 13, 2-[4-[[(3R)-1-Ethyl-3-piperidyl]amino]-3-methyl-isoxazolo[4,5-d]pyridazin-7-yl]-5-(trifluoromethyl)phenol]: 18 nM and 2.6 nM. The matching figures for `CCN1CCC[C@@H](Nc2nnc(-c3c(C)cc(C(F)(F)F)cc3O)c3[nH]ncc23)C1` [Example 14, 2-[4-[[(3R)-1-ethyl-3-piperidyl]amino]-1H-pyrazolo[3,4-d]pyridazin-7-yl]-3-methyl-5-(trifluoromethyl)phenol; 2,2,2-trifluoroacetic acid]: 7.8 nM and 0.111 nM.

Consider `CCN1CCC[C@@H](Nc2nnc(-c3c(O)cc(C(F)(F)F)cc3F)c3c2cnn3C)C1` [Example 15, 2-[4-[[(3R)-1-Ethyl-3-piperidyl]amino]-1-methyl-pyrazolo[3,4-d]pyridazin-7-yl]-3-fluoro-5-(trifluoromethyl)phenol], for which the IC50 amounted to 8.6 nM on NLRP3 [1] and 0.232 nM on NLRP3 [2].

On NLRP3 [1], `Cn1ncc2c(N[C@H]3C[C@@](C)(O)C3)nnc(-c3ccc(C(F)(F)F)cc3O)c21` [Example 16, 2-[4-[(3-Hydroxy-3-methyl-cyclobutyl)amino]-1-methyl-pyrazolo[3,4-d]pyridazin-7-yl]-5-(trifluoromethyl)phenol] displayed an IC50 of 362 nM. As to `CCN1CCC[C@@H](Nc2nnc(-c3ccc4c(c3O)CCO4)c3c2cnn3C)C1` [Example 17, 5-[4-[[(3R)-1-Ethyl-3-piperidyl]amino]-1-methyl-pyrazolo[3,4-d]pyridazin-7-yl]-2,3-dihydrobenzofuran-4-ol], the results for the IC50 on NLRP3 [1] and at NLRP3 [2] were 3.6 nM and 0.015 nM, respectively. In the same order, the values of `CCN1CCC[C@@H](Nc2nnc(-c3ccc4c(c3O)CC4)c3c2cnn3C)C1` [Example 18, 3-[4-[[(3R)-1-Ethyl-3-piperidyl]amino]-1-methyl-pyrazolo[3,4-d]pyridazin-7-yl]bicyclo[4.2.0]octa-1(6),2,4-trien-2-ol] are 2.2 nM and 0.033 nM.

Turning to `CCN1C[C@@H](O)C[C@@H](Nc2nnc(-c3ccc4c(c3O)CCO4)c3c2cnn3C)C1` [Example 19, (3S,5R)-1-Ethyl-5-[[7-(4-hydroxy-2,3-dihydrobenzofuran-5-yl)-1-methyl-pyrazolo[3,4-d]pyridazin-4-yl]amino]piperidin-3-ol], the IC50 against NLRP3 [1] came to 46.6 nM; on NLRP3 [2] it was 0.3 nM.

As usually defined, the IC50 is the midpoint of a concentration-inhibition curve.
